Reference: US20060069132A1, “Azolecarboxamide herbicides” (priority 2004, published 2006)

How the values were obtained:
Test in all cases: Test E pre-/postemergence herbicide test
mustard = format: in vivo, Brassica nigra
Method in brief: (§1)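 Each species was compared with untreated controls 12 to 14 days after greenhouse application and assigned a visual score from 0 (no effect) to 100 (complete control). Applications were preemergence to seeded soil or postemergence to 1- to 4-leaf plants, using a solvent-plus-surfactant formulation.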

field bindweed = format: in vivo, Convolvulus arvensis
Method in brief: as §1

guineagrass = format: in vivo, Panicum maximum
Method in brief: as §1

Russian thistle = format: in vivo, Salsola kali
Method in brief: as §1

large crabgrass = format: in vivo, Digitaria sanguinalis
Method in brief: as §1

prickly sida = format: in vivo, Sida spinosa
Source text: Seeds of plant species selected from bipinnate beggarticks (Bidens bipinnata L.), hairy beggarticks (Bidens radiata Thuill.), bermudagrass (Cynodon dactylon (L.) Pers.), Surinam grass (Urochloa decumbens (Staph) R. D. Webster, previously named Brachiaria decumbens Stapf), large crabgrass (Digitaria sanguinalis (L.) Scop.), green foxtail (Setaria viridis (L.) P. Beauv.), goosegrass (Eleusine indica (L.) Gaertn.), johnsongrass (Sorghum halepense (L.) Pers.), kochia (Kochia scoparia (L.) Schrad.), pitted morningglory (Ipomoea lacunosa L.), purple nutsedge (Cyperus rotundus L.), common ragweed (Ambrosia elatior L.), mustard (Brassica nigra (L.) W. D. J. Koch), guineagrass (Panicum maximum Jacq.), dallisgrass (Paspalum dilatatum Poir.), barnyardgrass (Echinochloa crus-galli (L). P. Beauv.), southern sandbur (Cenchrus echinatus L.), common sowthistle (Sonchus oleraceous L.), prickly sida (Sida spinosa L.), Italian ryegrass (Lolium multiflorum Lam.), common purslane (Portulaca oleracea L.), broadleaf signalgrass (Brachiaria platyphylla (Griseb.) Nash), common groundsel (Senecio vulgaris L.), common chickweed (Stellaria media (L.) Vill/Cyr.), tropical spiderwort (Commelina benghalensis L.), annual bluegrass (Poa annua L.), downy bromegrass (Bromus tectorum L.), itchgrass (Rottboellia cochinchinensis (L.) L.f.), quackgrass (Elytrigia repens (L.) Nevski), Canada horseweed (Erigeron Canadensis L.), field bindweed (Convolvulus arvensis L.), spotted spurge (Euphorbia maculata L.), common mallow (Malva sylvestris (=s silvestris) L.), and Russian thistle (Salsola kali L. ssp. Ruthenica (Iljin) Soo) were planted and treated preemergence with test chemicals formulated in a non-phytotoxic solvent mixture which included a surfactant.
At the same time, plants selected from these weed species were treated with postemergence applications of some of the test chemicals formulated in the same manner. Plants ranged in height from 2 to 18 cm (1- to 4-leaf stage) for postemergence treatments. Treated plants and controls were maintained in a greenhouse for 12 to 14 days, after which time all species were compared to controls and visually evaluated. Plant response ratings, summarized in Table E, are based on a scale of 0 to 100 where 0 is no effect and 100 is complete control. A dash (-) response means no test result.

common groundsel = format: in vivo, Senecio vulgaris
Method in brief: as §1

common ragweed = format: in vivo, Ambrosia elatior
Method in brief: as §1

common mallow = format: in vivo, Malva sylvestris
Method in brief: as §1

quackgrass = format: in vivo, Elytrigia repens
Method in brief: as §1

tropical spiderwort = format: in vivo, Commelina benghalensis
Method in brief: as §1

Surinam grass = format: in vivo, Urochloa decumbens
Method in brief: as §1

barnyardgrass = format: in vivo, Echinochloa crus-galli
Method in brief: as §1

southern sandbur = format: in vivo, Cenchrus echinatus
Method in brief: as §1

pitted morningglory = format: in vivo, Ipomoea lacunosa
Method in brief: as §1

dallisgrass = format: in vivo, Paspalum dilatatum
Method in brief: as §1

Canada horseweed = format: in vivo, Erigeron Canadensis; settings: Preemergence
Method in brief: as §1

[1] = Postemergence, 500 g ai/ha, scale 0 to 100
[2] = Postemergence, 250 g ai/ha, scale 0 to 100
[3] = Preemergence, 62 g ai/ha, scale 0 to 100
[4] = Preemergence, 125 g ai/ha, scale 0 to 100
[5] = Preemergence, 250 g ai/ha, scale 0 (no effect) to 100 (complete control)
[6] = Preemergence, 500 g ai/ha, scale 0 (no effect) to 100 (complete control)
[7] = postemergence, 125 g ai/ha, scale 0 to 100

CCNC(=O)c1ccnc(NC(=O)c2cc(C(C)(C)C)nn2CC)c1 [Compound 152]
95: Plant response rating, Black Mustard (mustard; [5]) | Plant response rating, Prickly Sida (prickly sida; [6]) | Plant response rating, Groundsel (common groundsel; [1]) | Plant response rating, Groundsel (common groundsel; [2]) | Plant response rating, Groundsel (common groundsel; [3]) | Plant response rating, Dallisgrass (dallisgrass; [6])
80: Plant response rating, Guineagrass (guineagrass; [1]) | Plant response rating, Guineagrass (guineagrass; [5]) | Plant response rating, Thistle (Russian thistle; [1]) | Plant response rating, Thistle (Russian thistle; [2]) | Plant response rating, Crabgrass, Large (large crabgrass; [1]) | Plant response rating, Ragweed (common ragweed; [5]) | Plant response rating, Ragweed (common ragweed; [6]) | Plant response rating, Mallow (common mallow; [4]) | Plant response rating, Quackgrass (quackgrass; [1]) | Plant response rating, Quackgrass (quackgrass; [2]) | Plant response rating, Spiderwort (tropical spiderwort; [1]) | Plant response rating, Spiderwort (tropical spiderwort; [6]) | Plant response rating, Surinam Grass (Surinam grass; [1]) | Plant response rating, Surinam Grass (Surinam grass; [6]) | Plant response rating, Sandbur (southern sandbur; [6]) | Plant response rating, Dallisgrass (dallisgrass; [4])
90: Plant response rating, Black Mustard (mustard; [3]) | Plant response rating, Black Mustard (mustard; [4]) | Plant response rating, Bindweed, Field (field bindweed; [6]) | Plant response rating, Groundsel (common groundsel; [7]) | Plant response rating, Mallow (common mallow; [5]) | Plant response rating, Mallow (common mallow; [6]) | Plant response rating, Barnyardgrass (barnyardgrass; [6])
50: Plant response rating, Bindweed, Field (field bindweed; [1]) | Plant response rating, Guineagrass (guineagrass; [4]) | Plant response rating, Ragweed (common ragweed; [7]) | Plant response rating, Mallow (common mallow; [1]) | Plant response rating, Mallow (common mallow; [2]) | Plant response rating, Quackgrass (quackgrass; [5]) | Plant response rating, Surinam Grass (Surinam grass; [4]) | Plant response rating, Barnyardgrass (barnyardgrass; [7]) | Plant response rating, Dallisgrass (dallisgrass; [3])
100: Plant response rating, Black Mustard (mustard; [1]) | Plant response rating, Black Mustard (mustard; [2]) | Plant response rating, Black Mustard (mustard; [6]) | Plant response rating, Guineagrass (guineagrass; [6]) | Plant response rating, Thistle (Russian thistle; [6]) | Plant response rating, Crabgrass, Large (large crabgrass; [5]) | Plant response rating, Crabgrass, Large (large crabgrass; [6]) | Plant response rating, Groundsel (common groundsel; [4]) | Plant response rating, Groundsel (common groundsel; [5]) | Plant response rating, Groundsel (common groundsel; [6]) | Plant response rating, Sandbur (southern sandbur; [1])
70: Plant response rating, Guineagrass (guineagrass; [2]) | Plant response rating, Crabgrass, Large (large crabgrass; [4]) | Plant response rating, Quackgrass (quackgrass; [7]) | Plant response rating, Sandbur (southern sandbur; [5])
10: Plant response rating, Bindweed, Field (field bindweed; [3]) | Plant response rating, Quackgrass (quackgrass; [3]) | Plant response rating, Spiderwort (tropical spiderwort; [2]) | Plant response rating, Spiderwort (tropical spiderwort; [3]) | Plant response rating, Sandbur (southern sandbur; [3]) | Plant response rating, Morningglory (pitted morningglory; [3]) | Plant response rating, Morningglory (pitted morningglory; [4]) | Plant response rating, Morningglory (pitted morningglory; [7])
75: Plant response rating, Crabgrass, Large (large crabgrass; [2]) | Plant response rating, Ragweed (common ragweed; [1]) | Plant response rating, Spiderwort (tropical spiderwort; [5]) | Plant response rating, Barnyardgrass (barnyardgrass; [1]) | Plant response rating, Barnyardgrass (barnyardgrass; [2]) | Plant response rating, Barnyardgrass (barnyardgrass; [4]) | Plant response rating, Dallisgrass (dallisgrass; [1]) | Plant response rating, Dallisgrass (dallisgrass; [2])
60: Plant response rating, Bindweed, Field (field bindweed; [5]) | Plant response rating, Crabgrass, Large (large crabgrass; [7]) | Plant response rating, Prickly Sida (prickly sida; [2]) | Plant response rating, Prickly Sida (prickly sida; [5]) | Plant response rating, Ragweed (common ragweed; [2]) | Plant response rating, Ragweed (common ragweed; [4]) | Plant response rating, Quackgrass (quackgrass; [6]) | Plant response rating, Surinam Grass (Surinam grass; [2]) | Plant response rating, Barnyardgrass (barnyardgrass; [3])
30: Plant response rating, Bindweed, Field (field bindweed; [2]) | Plant response rating, Bindweed, Field (field bindweed; [7]) | Plant response rating, Surinam Grass (Surinam grass; [7]) | Plant response rating, Sandbur (southern sandbur; [4]) | Plant response rating, Morningglory (pitted morningglory; [1]) | Plant response rating, Dallisgrass (dallisgrass; [7])
40: Plant response rating, Crabgrass, Large (large crabgrass; [3]) | Plant response rating, Mallow (common mallow; [3]) | Plant response rating, Sandbur (southern sandbur; [2]) | Plant response rating, Morningglory (pitted morningglory; [5]) | Plant response rating, Morningglory (pitted morningglory; [6])
20: Plant response rating, Bindweed, Field (field bindweed; [4]) | Plant response rating, Guineagrass (guineagrass; [3]) | Plant response rating, Thistle (Russian thistle; [3]) | Plant response rating, Thistle (Russian thistle; [4]) | Plant response rating, Prickly Sida (prickly sida; [3]) | Plant response rating, Prickly Sida (prickly sida; [4]) | Plant response rating, Ragweed (common ragweed; [3]) | Plant response rating, Quackgrass (quackgrass; [4]) | Plant response rating, Spiderwort (tropical spiderwort; [4]) | Plant response rating, Surinam Grass (Surinam grass; [3]) | Plant response rating, Sandbur (southern sandbur; [7]) | Plant response rating, Morningglory (pitted morningglory; [2])
85: Plant response rating, Prickly Sida (prickly sida; [1]) | Plant response rating, Barnyardgrass (barnyardgrass; [5]) | Plant response rating, Dallisgrass (dallisgrass; [5])

CCc1nn(C(C)(C)CC)nc1C(=O)Nc1cccc(C(=O)N(C)C)c1 [Compound 372]
90: Plant response rating, Mallow (common mallow; [6])
50: Plant response rating, Bindweed, Field (field bindweed; [5]) | Plant response rating, Crabgrass, Large (large crabgrass; [4]) | Plant response rating, Mallow (common mallow; [3]) | Plant response rating, Mallow (common mallow; [4]) | Plant response rating, Barnyardgrass (barnyardgrass; [3]) | Plant response rating, Morningglory (pitted morningglory; [5]) | Plant response rating, Dallisgrass (dallisgrass; [4])
10: Plant response rating, Bindweed, Field (field bindweed; [3]) | Plant response rating, Bindweed, Field (field bindweed; [4]) | Plant response rating, Crabgrass, Large (large crabgrass; [3]) | Plant response rating, Ragweed (common ragweed; [3]) | Plant response rating, Morningglory (pitted morningglory; [3]) | Plant response rating, Dallisgrass (dallisgrass; [3])
75: Plant response rating, Surinam Grass (Surinam grass; [6])
20: Plant response rating, Prickly Sida (prickly sida; [3]) | Plant response rating, Groundsel (common groundsel; [3]) | Plant response rating, Ragweed (common ragweed; [4]) | Plant response rating, Sandbur (southern sandbur; [3]) | Plant response rating, Morningglory (pitted morningglory; [4])
95: Plant response rating, Guineagrass (guineagrass; [6]) | Plant response rating, Prickly Sida (prickly sida; [5]) | Plant response rating, Prickly Sida (prickly sida; [6]) | Plant response rating, Groundsel (common groundsel; [6]) | Plant response rating, Quackgrass (quackgrass; [5]) | Plant response rating, Quackgrass (quackgrass; [6]) | Plant response rating, Barnyardgrass (barnyardgrass; [6]) | Plant response rating, Horseweed (Canada horseweed; 250 g ai/ha, scale 0 (no effect) to 100 (complete control))
30: Plant response rating, Quackgrass (quackgrass; [3]) | Plant response rating, Sandbur (southern sandbur; [4])
70: Plant response rating, Crabgrass, Large (large crabgrass; [5]) | Plant response rating, Groundsel (common groundsel; [4]) | Plant response rating, Groundsel (common groundsel; [5]) | Plant response rating, Ragweed (common ragweed; [6]) | Plant response rating, Spiderwort (tropical spiderwort; [4]) | Plant response rating, Spiderwort (tropical spiderwort; [5]) | Plant response rating, Barnyardgrass (barnyardgrass; [4]) | Plant response rating, Sandbur (southern sandbur; [6])
60: Plant response rating, Bindweed, Field (field bindweed; [6]) | Plant response rating, Quackgrass (quackgrass; [4]) | Plant response rating, Sandbur (southern sandbur; [5]) | Plant response rating, Morningglory (pitted morningglory; [6])
80: Plant response rating, Guineagrass (guineagrass; [4]) | Plant response rating, Guineagrass (guineagrass; [5]) | Plant response rating, Thistle (Russian thistle; [6]) | Plant response rating, Mallow (common mallow; [5]) | Plant response rating, Spiderwort (tropical spiderwort; [6]) | Plant response rating, Barnyardgrass (barnyardgrass; [5]) | Plant response rating, Horseweed (Canada horseweed; 62 g ai/ha, scale 0 to 100) | Plant response rating, Horseweed (Canada horseweed; 125 g ai/ha, scale 0 to 100) | Plant response rating, Dallisgrass (dallisgrass; [5])
100: Plant response rating, Black Mustard (mustard; [3]) | Plant response rating, Black Mustard (mustard; [4]) | Plant response rating, Black Mustard (mustard; [5]) | Plant response rating, Black Mustard (mustard; [6]) | Plant response rating, Crabgrass, Large (large crabgrass; [6]) | Plant response rating, Horseweed (Canada horseweed; 500 g ai/ha, scale 0 (no effect) to 100 (complete control))
40: Plant response rating, Guineagrass (guineagrass; [3]) | Plant response rating, Thistle (Russian thistle; [4]) | Plant response rating, Ragweed (common ragweed; [5]) | Plant response rating, Surinam Grass (Surinam grass; [4])
85: Plant response rating, Dallisgrass (dallisgrass; [6])
